Reference: patent US6660718B1, “3-modified leucomycin derivatives” (Meiji Seika Kaisha, Ltd., priority 1999, dated 2003)
Values after ≈ are worked out from the molar mass of the structure shown.

What was measured:
[1] = test system: Haemophilus influenzae 9334; assay: Antibacterial activity test (agar dilution MIC); type: cell-based; details: agar plates, 37° C., about 20 hours
Experimental: (§1) In vitro antibacterial activities of the compounds of Examples 3, 5, 20, 23, 25 and 48 were determined as follows by referring to the standard method of the Japanese Society of Chemotherapy (Chemotherapy, 29, pp.76-79, 1981). For comparison, antibacterial activities of rokitamycin (RKM), leucomycin-A7 (LM-A7) and the compound described in U.S. Pat. No. 5,407,918, Example 7 were determined in the same manner.
(§2) For a solution of each test drug dissolved in methanol at 5000 μg/ml, a series of 2-fold dilutions were prepared. 200 μl of each solution of the test drug was added in a petri dish, added with 10 ml of agar medium for susceptibility measurement supplemented with 5% of sterile horse defibrinated blood, 15 μg/ml of β-nicotinamide adenine dinucleotide and 5 μg/ml of Hemin, and then mixed to prepare agar plates containing the test drug. A given volume of a culture broth for susceptibility measurement, which was prepared to contain a given cell numbers of bacteria to be tested, was inoculated to the agar plates containing the test drug by using a micro planter (Sakuma Seisakusho). After the inoculation, cultivation was carried out at 37° C. for about 20 hours. After the culture, presence or absence of the growth of the test bacteria on the plates was observed by visual inspection, and the minimum concentration at which no growth was observed was determined as minimum inhibitory concentration (MIC) of each test drug for each of the test bacteria The results are shown in Tables 1-1, 1-2 and 1-3.

[2] = test system: Moraxella catarrhalis W-0500; assay: Antibacterial activity test (agar dilution MIC); type: cell-based; details: 37° C., about 20 hours; for Minimum inhibitory concentration (MIC): agar plates
Experimental: as §1, §2

[3] = test system: Staphylococcus aureus 209P JC-1; assay: Antibacterial activity test (agar dilution MIC); type: cell-based; details: agar plates, 37° C., about 20 hours
Experimental: as §1, §2

[4] = test system: Staphylococcus aureus MS15027 (ermC methylase); assay: Antibacterial activity test (agar dilution MIC); type: cell-based; details: for Minimum inhibitory concentration (MIC): Staphylococcus aureus MS15027 (ermC methylase), agar plates, 37° C., about 20 hours
Experimental: as §1, §2

[5] = test system: Streptococcus pneumoniae IP692; assay: Antibacterial activity test (agar dilution MIC); type: cell-based; details: agar plates, 37° C., about 20 hours
Experimental: as §1, §2

[6] = test system: Streptococcus pneumoniae PRC-53 (mefE efflux); assay: Antibacterial activity test (agar dilution MIC); type: cell-based; details: for Minimum inhibitory concentration (MIC): Streptococcus pneumoniae PRC-53 (mefE efflux), agar plates, 37° C., about 20 hours
Experimental: as §1, §2

[7] = test system: Streptococcus pneumoniae PRC-91 (ermAM methylase); assay: Antibacterial activity test (agar dilution MIC); type: cell-based; details: agar plates, 37° C., about 20 hours
Experimental: as §1, §2

[8] = test system: Streptococcus pneumoniae TH-662 (ermAM methylase); assay: Antibacterial activity test (agar dilution MIC); type: cell-based; details: agar plates, 37° C., about 20 hours
Experimental: as §1, §2

[9] = test system: resistant strains of Streptococcus pneumoniae; assay: Antibacterial activity test, resistant strains, comparison; type: cell-based; details: comparison of MIC values of Table 1-3; reversed versus natural configuration at 3-position
Experimental: as §1
as §2, with “A given volume of a culture broth for susceptibility measurement, which was prepared to contain a given cell numbers of bacteria to be tested, was inoculated to the agar plates containing the test drug by using a micro planter (Sakuma Seisakusho). After the inoculation, cultivation was carried out at 37° C. for about 20 hours.” left out

[10] = test system: Micrococcus luteus ATCC9341; assay: Antibacterial activity test (agar dilution MIC); type: cell-based; details: agar plates, 37° C., about 20 hours
Experimental: as §1, §2

[11] = test system: Streptococcus pneumoniae DP1 TypeI; assay: Antibacterial activity test (agar dilution MIC); type: cell-based; details: agar plates, 37° C., about 20 hours
Experimental: as §1, §2

[12] = test system: Streptococcus pyogenes Cook; assay: Antibacterial activity test (agar dilution MIC); type: cell-based; details: agar plates, 37° C., about 20 hours
Experimental: as §1, §2

[13] = type: in vitro ADME; details: 4 h
Experimental: Stability of the compound of Example 3 in plasma was studied as follows. Stability of RKM in plasma was also studied in the same manner for comparison. Blood was collected from rat ventral aorta and centrifuged (3000 rpm, 15 minutes) to separate plasma. 10 μl of a solution of a test drug dissolved in methanol at a concentration of 1600 μg/ml was added to 190 μl of the rat plasma and reacted at 37° C. At the start of the reaction and after 1, 2 and 4 hours, a part of the reaction mixture was collected and added with a given volume of an acetonitrile solution to prepare a bioassay sample for measurement of test medicament concentration. […] After the incubation, the diameter of the ring by growth inhibition of Micrococcus luteus ATCC9341 observed around the paper disc was measured by using a digital caliper. […] Based on a calibration curve obtained from concentrations of the standard solutions and diameters of growth inhibition rings, concentrations of the test drug in the samples at several time points were calculated, and then, by using the calculated remaining concentrations of the test drug in the samples at the time points, ratios of activity (%) based on the concentration at the start of the reaction, which was taken as 100%, were calculated. […]

Gram-positive bacteria = assay: Antibacterial activity test, overall comparison; type: cell-based; details: for enhancement of the antibacterial activity compared to RKM and LM-A7: comparison of MIC values of Tables 1-1 and 1-2
Experimental: as §1, §2

[14] = read-out: Minimum inhibitory concentration (MIC)

| Compound | Minimum inhibitory concentration (MIC) [1] | Minimum inhibitory concentration (MIC) [2] | Minimum inhibitory concentration (MIC) [3] | Minimum inhibitory concentration (MIC) [4] | Minimum inhibitory concentration (MIC) [5] | Minimum inhibitory concentration (MIC) [6] | Minimum inhibitory concentration (MIC) [7] | Minimum inhibitory concentration (MIC) [8] | Minimum inhibitory concentration (MIC) [10] | Minimum inhibitory concentration (MIC) [11] | Minimum inhibitory concentration (MIC) [12] | further results |
| --- | --- | --- | --- | --- | --- | --- | --- | --- | --- | --- | --- | --- |
| CCC(=O)OC1C(C)OC(OC2C(C)OC(OC3C(CC=O)CC(C)C(O)C=CC=CCC(C)OC(=O)CC(OC(=O)c4ccccc4)C3OC)C(O)C2N(C)C)CC1(C)O (stereo not drawn) [Example 48, 3-Epi-3-O-benzoylleucomycin A7] | 6.25 µg/mL (≈ 7.25 µM) | 0.78 µg/mL (≈ 0.905 µM) | 0.39 µg/mL (≈ 0.452 µM) | 0.78 µg/mL (≈ 0.905 µM) | 0.20 µg/mL (≈ 0.232 µM) | 0.20 µg/mL (≈ 0.232 µM) | 25 µg/mL (≈ 29 µM) | 25 µg/mL (≈ 29 µM) |  |  |  | antibacterial activity against the resistant strains of Streptococcus pneumoniae, compared with Example 25 [9]: improvement in antibacterial activity |
| CCCC(=O)O[C@H]1[C@H](C)O[C@@H](O[C@H]2[C@H](N(C)C)[C@@H](O)[C@H](O[C@H]3[C@@H](CC=O)C[C@@H](C)[C@@H](O)/C=C/C=C/C[C@@H](C)OC(=O)C[C@@H](O)[C@@H]3OC)O[C@@H]2C)C[C@@]1(C)OC(=O)CC [RKM, rokitamycin, reference compound] |  |  |  |  |  |  |  |  |  |  |  | MIC [1, 14]: 1.56 µg/mL (≈ 1.88 µM); MIC [10, 14]: 0.05 µg/mL (≈ 0.0604 µM); MIC ([2]; W0500, agar plates, read-out: Minimum inhibitory concentration (MIC)): 0.2 µg/mL (≈ 0.242 µM); MIC [3, 14]: 0.2 µg/mL (≈ 0.242 µM); MIC ([4]; Staphylococcus aureus, 20 h, read-out: Minimum inhibitory concentration (MIC)): 0.39 µg/mL (≈ 0.471 µM); MIC ([11]; DP1TYPEI, read-out: Minimum inhibitory concentration (MIC)): 0.1 µg/mL (≈ 0.121 µM); MIC ([6]; Streptococcus pneumoniae, 20 h, read-out: Minimum inhibitory concentration (MIC)): 0.2 µg/mL (≈ 0.242 µM); MIC [12, 14]: 0.05 µg/mL (≈ 0.0604 µM) |
| CCC(=O)O[C@H]1[C@H](C)O[C@@H](O[C@H]2[C@H](N(C)C)[C@@H](O)[C@H](O[C@H]3[C@@H](CC=O)C[C@@H](C)[C@@H](O)/C=C/C=C/C[C@@H](C)OC(=O)C[C@@H](O)[C@@H]3OC)O[C@@H]2C)C[C@@]1(C)O [LM-A7, leucomycin-A7, reference compound] | 1.56 µg/mL (≈ 2.06 µM) | 0.78 µg/mL (≈ 1.03 µM) | 0.39 µg/mL (≈ 0.515 µM) | 0.39 µg/mL (≈ 0.515 µM) | 0.39 µg/mL (≈ 0.515 µM) | 0.20 µg/mL (≈ 0.264 µM) | >100 µg/mL | >100 µg/mL | 0.10 µg/mL (≈ 0.132 µM) | 0.20 µg/mL (≈ 0.264 µM) | 0.10 µg/mL (≈ 0.132 µM) |  |
| CCC(=O)OC1C(C)OC(OC2C(C)OC(OC3C(CC=O)CC(C)C(O)C=CC=CCC(C)OC(=O)CC(OC(=O)c4ccccc4)C3OC)C(O)C2N(C)C)CC1(C)O (centres unmarked) [Example 25, 3-O-Benzoylleucomycin A7] | 6.25 µg/mL (≈ 7.25 µM) | 1.56 µg/mL (≈ 1.81 µM) | 0.39 µg/mL (≈ 0.452 µM) |  | 0.39 µg/mL (≈ 0.452 µM) | 0.39 µg/mL (≈ 0.452 µM) | >100 µg/mL | >100 µg/mL |  |  |  |  |
| CCCC(=O)OC1C(C)OC(OC2C(C)OC(OC3C(CC=O)CC(C)C(O)C=CC=CCC(C)OC(=O)CC(OC)C3OC)C(O)C2N(C)C)CC1(C)OC(=O)CC (centres unmarked) [Example 3, 3-O-Methylrokitamycin] | 3.13 µg/mL (≈ 3.72 µM) | 0.20 µg/mL (≈ 0.238 µM) | 0.10 µg/mL (≈ 0.119 µM) | 0.20 µg/mL (≈ 0.238 µM) |  | 0.10 µg/mL (≈ 0.119 µM) |  |  | 0.025 µg/mL (≈ 0.0297 µM) | 0.05 µg/mL (≈ 0.0594 µM) | 0.025 µg/mL (≈ 0.0297 µM) | Stability in rat plasma (remaining antibacterial activity with time) [13]: more stable in the rat plasma than RKM; enhancement of the antibacterial activity compared to RKM and LM-A7 (Gram-positive bacteria): two-fold |
| COC1CC(=O)OC(C)CC=CC=CC(O)C(C)CC(CC=O)C(OC2OC(C)C(OC3CC(C)(OC)C(OCCC(C)C)C(C)O3)C(N(C)C)C2O)C1OC (centres unmarked) [Example 20, 4″-O-Isoamyl-3,3″-di-O-methylleucomycin V] | 1.56 µg/mL (≈ 1.95 µM) | 0.39 µg/mL (≈ 0.487 µM) | 0.20 µg/mL (≈ 0.25 µM) | 0.39 µg/mL (≈ 0.487 µM) |  | 0.10 µg/mL (≈ 0.125 µM) |  |  | 0.05 µg/mL (≈ 0.0625 µM) | 0.10 µg/mL (≈ 0.125 µM) | 0.10 µg/mL (≈ 0.125 µM) | antibacterial activity compared with the compound described in Example 7 of U.S. Pat. No. 5,407,918 (Gram-positive bacteria; comparison of MIC values of Table 1-2): almost the same antibacterial activity |
| C=CCOC1CC(=O)OC(C)CC=CC=CC(O)C(C)CC(CC=O)C(OC2OC(C)C(OC3CC(C)(OC(=O)CC)C(OC(=O)CCC)C(C)O3)C(N(C)C)C2O)C1OC (centres unmarked) [Example 5, 3-O-Allylrokitamycin] | 6.25 µg/mL (≈ 7.2 µM) | 0.39 µg/mL (≈ 0.449 µM) | 0.20 µg/mL (≈ 0.23 µM) | 0.39 µg/mL (≈ 0.449 µM) |  | 0.20 µg/mL (≈ 0.23 µM) |  |  | 0.10 µg/mL (≈ 0.115 µM) | 0.20 µg/mL (≈ 0.23 µM) | 0.10 µg/mL (≈ 0.115 µM) |  |
| CCC(=O)OC1C(C)OC(OC2C(C)OC(OC3C(CC=O)CC(C)C(O)C=CC=CCC(C)OC(=O)CC(OC)C3OC)C(O)C2N(C)C)CC1(C)O (centres unmarked) [Example 23, 3-O-Methylleucomycin A7] | 1.56 µg/mL (≈ 2.02 µM) | 0.78 µg/mL (≈ 1.01 µM) | 0.20 µg/mL (≈ 0.259 µM) | 0.20 µg/mL (≈ 0.259 µM) |  | 0.10 µg/mL (≈ 0.13 µM) |  |  | 0.05 µg/mL (≈ 0.0648 µM) | 0.10 µg/mL (≈ 0.13 µM) | 0.10 µg/mL (≈ 0.13 µM) | enhancement of the antibacterial activity compared to RKM and LM-A7 (Gram-positive bacteria): two-fold |
